# Patent US5217971A, “Thiazole compounds and pharmaceutical composition comprising the same” (Fujisawa Pharmaceutical Co., Ltd., priority 1989, dated 1993)
# Experiments:
# stomachs of the rats = experiment: Effect on stomach of rats; type: in vivo; conditions: 100 mg/kg, oral
# platelet aggregation = experiment: Platelet aggregation ex vivo (1), arachidonic acid-induced, PRP after oral administration; type: in vivo, male Hartley guinea-pigs; conditions: guinea-pig, oral 1.0 mg/kg, 6 hours after administration, arachidonic acid final 50 μM
# Procedure: Male Hartley guinea-pigs weighing about 300 g were used after 24 hours fasting. Six hours after oral administration of the test compound or vehicle of test compound (control), blood was collected into a tube containing 0.1 vol. of 3.8% sodium citrate and prepared platelet rich plasma (PRP).
# To the 250 μl of PRP, 5 μl of arachidonic acid (final 50 μM) was added as an aggregation inducer. Aggregation was measured by using an aggregometer (NKK HEMA-TRACER 1).
# rats = experiment: Acute toxicity in rats by peroral administration; type: in vivo
# thrombin = experiment: Assay for thrombin activity (S-2238 substrate); type: biochemical; conditions: concentration 1.0 × 10^-4 M, pH 8.0, 37° C.
# Procedure: Thrombin activity was measured using the synthetic peptide substrate (S-2238, Kabivitrum).
# After 900 μl of 0.1 M Tris-HCl buffer (pH 8.0), 100 μl of drug solution and 10 μl of 3U/ml thrombin were incubated at 37° C. for 5 min, 2 ml of 100 μM S-2238 was added.
# The rate of increase in absorbance at 405 nm due to hydrolysis of S-2238 was measured with a spectrophotometer.
# Inhibition (%) of drug was calculated as follows:
# Inhibition (%)=(S-B)/A×100
# A:Abs/min in the absence of drug
# B:Abs/min in the presence of drug
Compound,lesion in stomachs of rats (stomachs of the rats),Inhibition (%) of platelet aggregation (platelet aggregation) [%],"acute toxicity, deaths at 100 mg/kg (rats)",Inhibition (%) of thrombin activity (thrombin) [%]
"COc1ccc(-c2nc(C(=O)N3CCN(C)CC3)sc2-c2ccc(OC)cc2)cc1.Cl [Example 1, 4,5-bis(4-methoxyphenyl)-2-(4methylpiperazin-1-yl)carbonylthiazole hydrochloride]",No lesion was observed,100,the dead at dose of 100 mg/kg could not be observed,–
"COc1ccc(-c2nc(C(=O)NC(=N)N)sc2-c2ccc(OC)cc2)cc1 [Example 5, 4,5-bis(4-methoxyphenyl)-2-guanidinocarbonylthiazole]",–,–,–,92.2
